Reference: ChEMBL document CHEMBL1122514, “Studies on synthesis and anticancer activity of selected N-(2-fluoroethyl)-N-nitrosoureas” (1984)
Where “and” joins values, the source holds several entries; their conditions need not be identical. Identical values can stand only once.

What was measured:
Mus musculus [1] = assay: Number of day-60 survivors at the optimal dose of 6.25 mg/kg; 9/10; assay type: functional
Mus musculus [2] = assay: Optimal percentage of increased life span [(100 x MST treated mice / MST control mice) -100] at the optimal dose of 6.25 mg/kg; d=Not Attained; assay type: functional, organism-based; set-up: dose 6.25 mg/kg
Mus musculus [3] = assay: Median survival time including day-60 survivors (MST), after post implantation at the optimal dose of 6.25 mg/kg; d=Not attained; assay type: functional, organism-based; set-up: dose 6.25 mg/kg
Mus musculus [4] = organism: Mus musculus; assay: optimal percentage of increased life span [(100 x MST treated mice / MST control mice) -100]; assay type: functional
Mus musculus [5] = assay: Compound is evaluated for maximally tolerated dose (MTD) against intraperitoneally implanted B16 melanoma cells in mice; assay type: functional
Mus musculus [6] = assay: Number of day-60 survivors at the optimal dose of 5 mg/kg; 3/10; assay type: functional
Mus musculus [7] = organism: Mus musculus; assay: (§1) Optimal percentage of increased life span [(100 x MST treated mice / MST control mice) -100]; assay type: functional
Mus musculus [8] = assay: Optimal percentage of increased life span [(100 x MST treated mice / MST control mice) -100] at the optimal dose of 5 mg/kg; assay type: functional
Mus musculus [9] = assay: Compound is evaluated for antitumor activity against intraperitoneally implanted B16 melanoma cells in mice median survival time including day-60 survivors (MST); assay type: functional
Mus musculus [10] = assay: Median survival time including day-60 survivors (MST), after post implantation at the optimal dose of 5 mg/kg; assay type: functional
Mus musculus [11] = organism: Mus musculus; assay: Number of day-60 survivors; 3/10; assay type: functional
Mus musculus [12] = assay: median survival time including day-60 survivors (MST), after post implantation at the optimal dose of 32 mg/kg; assay type: functional
Mus musculus [13] = assay: Optimal percentage of increased life span [(100 x MST treated mice / MST control mice) -100] at the optimal dose of 32 mg/kg; assay type: functional
Mus musculus [14] = assay: Number of day-60 survivors at the optimal dose of 32 mg/kg; 1/10; assay type: functional
Mus musculus [15] = assay: Optimal percentage of increased life span [(100 x MST treated mice / MST control mice) -100] at the optimal dose of 10 mg/kg; d=Not Attained; assay type: functional, organism-based; set-up: dose 10 mg/kg
Mus musculus [16] = organism: Mus musculus; assay: Optimal percentage of increased life span [(100 x MST treated mice / MST control mice) -100]; f=Not Attained; assay type: functional, organism-based
Mus musculus [17] = assay: Compound is evaluated for antitumor activity against intraperitoneally implanted B16 melanoma cells in mice median survival time including day-60 survivors (MST); f=Not attained; assay type: functional, organism-based
Mus musculus [18] = assay: Median survival time including day-60 survivors (MST), after post implantation at the optimal dose of 10 mg/kg; d=Not attained; assay type: functional, organism-based; set-up: dose 10 mg/kg
Mus musculus [19] = organism: Mus musculus; assay: Number of day-60 survivors; 4/10; assay type: functional
Mus musculus [20] = organism: Mus musculus; assay: Number of day-60 survivors; 5/10; assay type: functional
Mus musculus [21] = assay: Number of day-60 survivors at the optimal dose of 10 mg/kg; 7/10; assay type: functional
Mus musculus [22] = assay: median survival time including day-60 survivors (MST), after post implantation at the optimal dose of 20 mg/kg; assay type: functional
Mus musculus [23] = assay: Optimal percentage of increased life span [(100 x MST treated mice / MST control mice) -100] at the optimal dose of 20 mg/kg; assay type: functional
Mus musculus [24] = organism: Mus musculus; assay: Number of day-60 survivors; 1/10; assay type: functional
Mus musculus [25] = assay: Number of day-60 survivors at the optimal dose of 20 mg/kg; 3/10; assay type: functional
Mus musculus [26] = organism: Mus musculus; assay: Number of day-60 survivors; 2/10; assay type: functional
Mus musculus [27] = organism: Mus musculus; assay: as §1; assay type: functional; remark: listed apart in the source
Mus musculus [28] = assay: median survival time including day-60 survivors (MST), after post implantation at the optimal dose of 8 mg/kg; d=Not Attained; assay type: functional, organism-based; set-up: dose 8 mg/kg
Mus musculus [29] = assay: Number of day-60 survivors at the optimal dose of 8 mg/kg; 8/10; assay type: functional
Mus musculus [30] = assay: Optimal percentage of increased life span [(100 x MST treated mice / MST control mice) -100] at the optimal dose of 8 mg/kg; d=Not Attained; assay type: functional, organism-based; set-up: dose 8 mg/kg
Mus musculus [31] = assay: Optimal percentage of increased life span [(100 x MST treated mice / MST control mice) -100] at the optimal dose of 20 mg/kg; d=Not Attained; assay type: functional, organism-based; set-up: dose 20 mg/kg
Mus musculus [32] = assay: Median survival time including day-60 survivors (MST), after post implantation at the optimal dose of 20 mg/kg; d=Not attained; assay type: functional, organism-based; set-up: dose 20 mg/kg
Mus musculus [33] = assay: Number of day-60 survivors at the optimal dose of 20 mg/kg; 9/10; assay type: functional
Mus musculus [34] = organism: Mus musculus; assay: Number of day-60 survivors; 0/10; assay type: functional
Mus musculus [35] = assay: Number of day-60 survivors at the optimal dose of 20 mg/kg; 6/10; assay type: functional
Mus musculus [36] = assay: median survival time including day-60 survivors (MST), after post implantation at the optimal dose of 5 mg/kg; assay type: functional

In the case of O=NN(CCCl)C(=O)NCCO [ELMUSTINE], the Survivors (Mus musculus [1]) is reported as 9, the ILS (Mus musculus [2]) is reported as “Not attained” and the MST (Mus musculus [3]) is reported as “Not attained”.
Compound O=NN(CCF)C(=O)NCCO has an ILS (Mus musculus [4]) of 131%, an MTD (Mus musculus [5]) of 60 mg/kg and a Survivors (Mus musculus [6]) of 3. The ILS (Mus musculus [7]) was 150%, the ILS at 5 mg/kg (Mus musculus [8]) was 138% and the MST (Mus musculus [9]) was 50 days and 42.8 days. For the same compound, the MST (Mus musculus [10]) was 45.8 days and the Survivors (Mus musculus [11]) was 3.
O=NN(CCCl)C(=O)NC1CCCCC1 [LOMUSTINE] gave an MST (Mus musculus [12]) of 32 days, an ILS at 32 mg/kg (Mus musculus [13]) of 66% and a Survivors (Mus musculus [14]) of 1.
O=NN(CCF)C(=O)NC1C(O)CCCC1O (centres undefined) was tested, and the ILS (Mus musculus [4]) was 163%, the MTD (Mus musculus [5]) was 60 mg/kg and the ILS (Mus musculus [15]) was “Not attained”. The ILS (Mus musculus [16]) was “Not attained”, the MST (Mus musculus [17]) was “Not attained” and the MST (Mus musculus [9]) was 57 days. The MST (Mus musculus [18]) was “Not attained”, the Survivors (Mus musculus [19]) was 4 and the Survivors (Mus musculus [20]) was 5. The Survivors (Mus musculus [21]) was 7.
For O=NN(CCF)C(=O)NC1CCCCC1, the MST (Mus musculus [22]) was 44 days, the MTD (Mus musculus [5]) was 60 mg/kg and the ILS (Mus musculus [7]) was 71%. It also gave an ILS at 20 mg/kg (Mus musculus [23]) of 129%, an MST (Mus musculus [9]) of 37 days and a Survivors (Mus musculus [24]) of 1. For the same compound, the Survivors (Mus musculus [25]) was 3.
For O=NN(CCF)C(=O)NC1C(O)C(O)OC(CO)C1O (centres undefined), the MTD (Mus musculus [5]) was 60 mg/kg, the ILS (Mus musculus [7]) was 110% and the MST (Mus musculus [9]) was 50 days and 36 days. It also gave a Survivors (Mus musculus [26]) of 2, a Survivors (Mus musculus [11]) of 3 and an ILS (Mus musculus [27]) of 131%.
For O=NN(CCCl)C(=O)NC1CCC(=O)NC1=O (centres undefined), the MST (Mus musculus [28]) was “Not attained”, the Survivors (Mus musculus [29]) was 8 and the ILS (Mus musculus [30]) was “Not attained”.
For O=NN(CCF)C(=O)NC1CCC(=O)NC1=O (centres undefined), the MTD (Mus musculus [5]) was 60 mg/kg, the ILS (Mus musculus [7]) was 109% and 133% and the ILS (Mus musculus [31]) was “Not attained”. The MST (Mus musculus [9]) was 45.3 days and 40.3 days, the MST (Mus musculus [32]) was “Not attained” and the Survivors (Mus musculus [24]) was 1. For the same compound, the Survivors (Mus musculus [11]) was 3 and the Survivors (Mus musculus [33]) was 9.
In the case of O=NN(CCF)C(=O)NC1CCCCC1O (centres undefined), the MTD (Mus musculus [5]) is reported as 60 mg/kg, the ILS (Mus musculus [7]) is reported as 122% and 109% and the ILS (Mus musculus [31]) is reported as “Not attained”. The MST (Mus musculus [9]) was 48 days and 35.8 days, the MST (Mus musculus [32]) was “Not attained” and the Survivors (Mus musculus [34]) was 0. The Survivors (Mus musculus [11]) was 3 and the Survivors (Mus musculus [35]) was 6.
O=NN(CCCl)C(=O)NC1C(O)CCCC1O (centres undefined) gave an MST (Mus musculus [36]) of 33.3 days, a Survivors (Mus musculus [6]) of 3 and an ILS at 5 mg/kg (Mus musculus [8]) of 73%.
